Measurements reported in patent US7262267B1, “Polypeptide mediating cell permeability” (Island Pharmacueticals, Ltd., priority 1998, dated 2007).
Where no end group is shown, it is not given here.

What was measured:
[1] = test system: 293 cells; assay: Cell permeability: detection of the protein in the cytosolic fraction of 293 cells by Western blot; type: cell-based; details: 1 μM in medium, Western blot anti-hexa-His and anti-eGFP
Description: Detection of the cell permeability mediated by DHBV (duck hepatitis B virus)-CPP was made as follows: According to standard methods a fusion protein consisting of a hexa-His-Tag (6H), DHBV-CPP and eGFP (enhanced green fluorescent protein) was prepared in analogy to Example 1 in an E. coli expression system. The pQE vector system of the Quiagen company was used. This protein (DHBV42-53eGFP) was isolated. wt6HeGFP (fusion protein of 6 His and eGFP) was used for control experiments. Then, 293 cells were incubated in the presence of these proteins for 10 and 20 minutes. The proteins were added to the medium at a concentration of 1 μM. After 10 or 20 minutes, the cells were lyzed and the cytosolic fraction of the cells was isolated by ultracentrifugation.
The presence of DHBV42-53 eGFP in the cytosol fraction was detected by means of Western blot analysis using a hexa-His-tag-specific antibody (FIG. 6, lanes 1-4) (anti-hexa-His6 of Qiagen company) or an eGFP-specific antibody (anti-eGFP of Clontech company) (FIG. 6, lanes 5-8). A peroxidase-conjugated secondary antibody (anti-mouse HRP, anti-rabbit-HRP of Amersham company) was used for the detection.

[2] = test system: c-Raf1 kinase; assay: Inhibition of the TNFα-dependent activation of c-Raf1 kinase (immunocomplex test with MEK and γ-32P-ATP); type: cell-based; details: HeLa cells incubated 2 h with 2 μM polypeptide, stimulated 15 min with TNFα; FIG. 2
Source text: The detection of cell permeability mediated by CPP is shown by inhibition of the TNFα-dependent activation of c-Raf1 kinase. The activation of the c-Raf1 kinase is based on the interaction between the TNF receptor I (TNR-RI) and the adapter molecule Grb2. For this purpose, the SH3 domain of Grb2 interacts with a PLAP motive from the cytoplasmic domain of TNF-RI.
CPP is provided in the form of a fusion polypeptide. In this fusion polypeptide referred to as CPP-PLAP CPP, the amino acid sequence of FIG. 1 is present as N-terminus partner and a PLAP motive from the cytoplasmic domain of TNF-RI is present as C-terminus partner. A fusion polypeptide referred to as CPP-KLAP is also provided, which has a mutated PLAP motive.
HeLa cells are incubated for 2 h with 2 μM CPP-PLAP or CPP-KLAP (control) and stimulated for 15 min with 100 μ/ml TNFα. The activation of c-Raf1 kinase is determined by an immunocomplex test using MEK (Santa Cruz, Biotech) and y^32p-ATP as substrate (cf. FIG. 2).

Substance | internalization of the protein into the cell (cytosol) ([1]; after 10 min) | internalization of the protein into the cell (cytosol) ([1]; after 20 minutes) | inhibition of the TNFα-dependent activation of c-Raf1 kinase [2]
DHBV42-53-eGFP: fusion protein consisting of a hexa-His-Tag (6H), DHBV-CPP and eGFP (enhanced green fluorescent protein) (TIDHVLDHVQTM; not fully specified (C-terminus); also: fusion with hexa-His tag and eGFP, not in the chain) | can be observed | can be observed | –
CPP-PLAP: fusion polypeptide: amino acid sequence of FIG. 1 as N-terminus partner, PLAP motive from cytoplasmic domain of TNF-RI as C-terminus partner (PLSSIFSRIGDPTTTKPLAPNPSF) | – | – | fully inhibits
